Results from patent US10669272B2, “Substituted naphthyridinone compounds useful as T cell activators” (BRISTOL-MYERS SQUIBB COMPANY, priority 2018, dated 2020).
Where two headings read alike, the source gives them in different places.

Assays:
human DGKα = target: T1, human DGKα (Homo sapiens, UniProt P23743); assay: DGKα LIPGLO assay (extruded liposome substrate), in vitro DGK inhibition; type: biochemical; conditions: read-out: DGKa LIPGLO IC50
T1 construct: TVMV protease cleavage site (C); Hexa-His (C); made in house; host or cells: Sf9 insect cells (baculovirus, Bac-to-Bac)

human DGKζ = target: T2, human DGKζ (Homo sapiens, UniProt Q13574); assay: DGKζ LIPGLO assay (extruded liposome substrate), in vitro DGK inhibition; type: biochemical; conditions: read-out: DGKz LIPGLO IC50
T2 construct: TVMV protease cleavage site (C); Hexa-His (C); made in house; host or cells: Sf9 insect cells (baculovirus, Bac-to-Bac)
T2 sequence (Q13574 with tags, fused parts or gaps isoform Q13574-4): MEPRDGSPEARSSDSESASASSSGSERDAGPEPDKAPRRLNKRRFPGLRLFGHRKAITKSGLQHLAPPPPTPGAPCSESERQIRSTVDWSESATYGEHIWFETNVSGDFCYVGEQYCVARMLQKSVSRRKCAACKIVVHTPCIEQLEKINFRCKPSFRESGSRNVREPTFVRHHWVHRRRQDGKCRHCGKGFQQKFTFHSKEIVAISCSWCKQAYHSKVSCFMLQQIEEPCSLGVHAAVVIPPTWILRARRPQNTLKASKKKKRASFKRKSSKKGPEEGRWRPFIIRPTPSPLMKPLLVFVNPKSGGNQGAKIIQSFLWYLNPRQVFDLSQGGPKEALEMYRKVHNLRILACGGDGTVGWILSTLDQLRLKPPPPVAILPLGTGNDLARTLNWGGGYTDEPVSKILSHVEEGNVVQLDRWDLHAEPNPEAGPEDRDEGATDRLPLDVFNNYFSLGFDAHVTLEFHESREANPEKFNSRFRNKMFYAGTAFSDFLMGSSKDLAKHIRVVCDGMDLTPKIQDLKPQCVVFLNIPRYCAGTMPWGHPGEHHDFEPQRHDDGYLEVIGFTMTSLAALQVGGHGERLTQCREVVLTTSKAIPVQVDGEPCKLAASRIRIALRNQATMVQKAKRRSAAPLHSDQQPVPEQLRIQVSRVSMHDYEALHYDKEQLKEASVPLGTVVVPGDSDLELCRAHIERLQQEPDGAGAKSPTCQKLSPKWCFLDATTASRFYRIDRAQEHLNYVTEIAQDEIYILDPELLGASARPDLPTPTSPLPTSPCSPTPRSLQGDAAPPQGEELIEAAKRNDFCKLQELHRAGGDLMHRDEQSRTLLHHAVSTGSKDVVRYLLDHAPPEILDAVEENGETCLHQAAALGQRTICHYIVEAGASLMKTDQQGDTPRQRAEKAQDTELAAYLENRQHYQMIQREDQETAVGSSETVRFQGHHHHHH

T1 sequence (P23743 with tags, fused parts or gaps): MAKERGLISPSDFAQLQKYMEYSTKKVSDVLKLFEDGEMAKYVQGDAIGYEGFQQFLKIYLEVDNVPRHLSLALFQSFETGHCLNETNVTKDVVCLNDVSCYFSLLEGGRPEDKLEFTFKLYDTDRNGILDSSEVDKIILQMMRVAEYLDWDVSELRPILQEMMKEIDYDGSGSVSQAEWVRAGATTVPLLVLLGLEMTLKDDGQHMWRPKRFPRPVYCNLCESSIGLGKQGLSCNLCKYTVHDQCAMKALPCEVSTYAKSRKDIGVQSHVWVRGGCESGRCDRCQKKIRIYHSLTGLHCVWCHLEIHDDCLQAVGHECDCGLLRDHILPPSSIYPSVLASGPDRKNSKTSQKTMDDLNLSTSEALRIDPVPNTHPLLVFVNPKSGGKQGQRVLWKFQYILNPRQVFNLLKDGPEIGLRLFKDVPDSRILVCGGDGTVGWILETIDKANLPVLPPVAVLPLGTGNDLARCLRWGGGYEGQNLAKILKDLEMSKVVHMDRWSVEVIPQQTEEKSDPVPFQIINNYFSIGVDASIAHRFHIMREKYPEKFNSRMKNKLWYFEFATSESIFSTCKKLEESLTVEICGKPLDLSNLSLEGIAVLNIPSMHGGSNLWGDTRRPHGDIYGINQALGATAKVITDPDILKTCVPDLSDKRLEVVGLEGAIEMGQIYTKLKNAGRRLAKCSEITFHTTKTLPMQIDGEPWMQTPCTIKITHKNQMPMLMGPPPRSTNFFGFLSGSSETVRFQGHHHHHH

Row | SMILES | IC50 (human DGKα; liposome (LIPGLO) assay) [µM] | IC50 (human DGKζ; liposome (LIPGLO) assay) [µM] | IC50 (human DGKα; DGKα liposome (LIPGLO) assay) [µM] | IC50 (human DGKζ; DGKζ liposome (LIPGLO) assay) [µM]
1 | COC(=O)c1ccc(C(C)N2CCN(c3c(C#N)c(=O)n(C)c4ccc(C#N)nc34)C[C@H]2C)cc1 (some centres unmarked) [Example 980] | – | – | 5.7 | 13
2 | COC(=O)C1CN(C(c2ccc(F)cc2)c2ccc(F)cc2)CCN1c1c(Br)c(=O)n(C)c2ccc(C#N)nc12 (centres unmarked) [Example 162, Methyl 4-(bis(4-fluorophenyl)methyl)-1-(3-bromo-6-cyano-1-methyl-2-oxo-1,2-dihydro-1,5-naphthyridin-4-yl)piperazine-2-carboxylate] | 1.9 | 2.4 | – | –
3 | COC(=O)c1ccc(C(C)N2C[C@H](C)N(c3c(C#N)c(=O)n(C)c4ccc(C#N)nc34)C[C@H]2C)cc1 (single isomer, unassigned) [Example 793] | – | – | 6.9 | 11
4 | Cc1nc2ccc(C(C)N3C[C@H](C)N(c4cc(=O)n(C)c5ccc(C#N)nc45)C[C@H]3C)cc2s1 (single isomer, unassigned) [Example 1264] | 10 | 3.6 | – | –
5 | CC[C@@H]1CN(c2cc(=O)n(C)c3ccc(C#N)nc23)[C@@H](C)CN1C(C)c1ccc(F)cc1F (single isomer, unassigned) [Example 1087] | 0.072 | 0.086 | – | –
6 | COCC(c1ccc(F)cc1)N1C[C@H](C)N(c2cc(=O)n(C)c3ccc(C#N)nc23)C[C@H]1C (single isomer, unassigned) [Example 560] | 0.58 | 2.9 | – | –
7 | C[C@@H]1CN(c2c(C#N)c(=O)n(C)c3ccc(Br)nc23)CCN1C(c1ccc(Cl)cc1)c1ccc(Cl)cc1 [Example 102, (R)-4-(4-(bis(4-chlorophenyl)methyl)-3-methylpiperazin-1-yl)-6-bromo-1-methyl-2-oxo-1,2-dihydro-1,5-naphthyridine-3-carbonitrile] | 2.9 | 8.3 | – | –
8 | C[C@@H]1CN(c2c(C#N)c(=O)n(C)c3ccc(C#N)nc23)CCN1C(c1ccc(Cl)cc1)c1ncccc1F (some centres unmarked) [Example 913] | – | – | 2.1 | 5.5
9 | CCC(c1ccc(OC(C)(C)C)cc1)N1C[C@H](C)N(c2cc(=O)n(C)c3ccc(C#N)nc23)C[C@H]1C (single isomer, unassigned) [Example 1444] | 10 | 0.48 | – | –
10 | C[C@@H]1CN(c2cc(=O)n(C)c3ccc(C#N)nc23)[C@@H](C)CN1C(c1ccc(OC(F)(F)F)cc1)c1ccccn1 (stereo partly drawn) [Example 377, 8-((2S,5R)-2,5-dimethyl-4-(pyridin-2-yl(4-(trifluoromethoxy)phenyl)methyl)piperazin-1-yl)-5-methyl-6-oxo-5,6-dihydro-1,5-naphthyridine-2-carbonitrile] | 0.31 | 3.9 | – | –
11 | CC(c1cccc(OC(F)F)c1)N1C[C@H](C)N(c2cc(=O)n(C)c3ccc(C#N)nc23)C[C@H]1C (single isomer, unassigned) [Example 1272] | 5 | 0.66 | – | –
12 | Cn1c(=O)cc(N2CCN(C(c3ccc(F)cc3)c3ccc(F)cc3)CC2CF)c2nc(C#N)ccc21 (racemic) [Example 149, 8-(4-(bis(4-fluorophenyl)methyl)-2-(fluoromethyl)piperazin-1-yl)-5-methyl-6-oxo-5,6-dihydro-1,5-naphthyridine-2-carbonitrile] | 35 | 21 | – | –
13 | CC[C@@H]1CN(c2cc(=O)n(C)c3ccc(C#N)nc23)[C@@H](C)CN1C(C)c1ccc(OC(F)(F)F)cc1F (single isomer, unassigned) [Example 1096] | 2.2 | 1.4 | – | –
14 | Cn1c(=O)c(C#N)c(N2CCN(C(c3ccc(F)cc3)c3ccc(F)cc3)C(C(N)=O)C2)c2nc(C#N)ccc21 (single isomer, unassigned) [Example 58, 1-(bis (4-fluorophenyl)methyl)-4-(3,6-dicyano-1-methyl-2-oxo-1,2-dihydro-1,5-naphthyridin-4-yl)piperazine-2-carboxamide] | 7.2 | 180 | – | –
15 | C[C@@H]1CN(c2c(C#N)c(=O)n(C)c3ccc(C#N)nc23)[C@@H](C)CN1C(c1ccc(F)cc1)c1ccc(C(F)(F)F)cn1 (single isomer, unassigned) [Example 837] | – | – | 5.7 | 35
16 | C[C@@H]1CN(c2cc(=O)n(C)c3ccc(C#N)nc23)[C@@H](C)CN1C(c1ccc(F)cc1)c1nnc(C2CC2)s1 (single isomer, unassigned) [Example 775] | – | – | 5.8 | 6.6
17 | C[C@@H]1CN(c2cc(=O)n(C)c3ccc(C#N)nc23)[C@@H](C)CN1Cc1cccc2c1OCCN2C(=O)OC(C)(C)C [Example 630] | 0.39 | 13 | – | –
18 | CC(c1ccc(P(C)(C)=O)cc1)N1C[C@H](C)N(c2c(C#N)c(=O)n(C)c3ccc(C#N)nc23)C[C@H]1C (single isomer, unassigned) [Example 1295] | 130 | 47 | – | –

The remaining lines, values ahead:

Row | IC50 (human DGKα; liposome (LIPGLO) assay) [µM] | IC50 (human DGKζ; liposome (LIPGLO) assay) [µM] | IC50 (human DGKα; DGKα liposome (LIPGLO) assay) [µM] | IC50 (human DGKζ; DGKζ liposome (LIPGLO) assay) [µM] | SMILES
19 | 4.2 | 1.1 | – | – | Cc1nc2c(C(C)N3C[C@H](C)N(c4cc(=O)n(C)c5ccc(C#N)nc45)C[C@H]3C)cccc2o1 (single isomer, unassigned) [Example 1261]
20 | 0.029 | 0.78 | – | – | C[C@@H]1CN(c2cc(=O)n(C)c3ccc(C#N)nc23)[C@@H](C)CN1C(COC(F)F)c1ccc(F)cc1 (single isomer, unassigned) [Example 1188]
21 | 9.3 | 28 | – | – | C[C@@H]1CN(c2c(C#N)c(=O)n(C)c3ccc(C#N)nc23)CCN1C(c1ccc(Cl)cc1)c1ccncn1 (single isomer, unassigned) [Example 320]
22 | 1.8 | 2.7 | – | – | CC[C@H]1CN(C(c2ccc(C)cc2)c2ccc(Cl)cc2)[C@H](C)CN1c1cc(=O)n(C)c2ccc(C#N)nc12 (single isomer, unassigned) [Example 1121]
23 | 72 | 1.4 | – | – | CCC(c1cc(Cl)cc2c1OCC2)N1C[C@H](C)N(c2cc(=O)n(C)c3ccc(C#N)nc23)C[C@H]1C (stereo partly drawn) [Example 353, 8-((2S,5R)-4-(1-(5-chloro-2,3-dihydrobenzofuran-7-yl)propyl)-2,5-dimethylpiperazin-1-yl)-5-methyl-6-oxo-5,6-dihydro-1,5-naphthyridine-2-carbonitrile]
24 | 4.3 | 0.64 | – | – | C[C@@H]1CN(c2cc(=O)n(C)c3ccc(C#N)nc23)[C@@H](C)CN1Cc1cccc(N(C)C)c1 [Example 573]
25 | > 250 | 4.5 | – | – | C[C@@H]1CN(c2cc(=O)n(C)c3ccc(C#N)nc23)[C@@H](C)CN1C(c1ccc(F)cc1)c1ccccc1N1CCOCC1 (single isomer, unassigned) [Example 664]
26 | 1.3 | 0.054 | – | – | CCOC[C@@H]1CN(c2cc(=O)n(C)c3ccc(C#N)nc23)[C@@H](C)CN1C(C)c1ccc(OC(F)(F)F)cc1 (single isomer, unassigned) [Example 1397]
27 | 0.59 | 3.9 | – | – | Cc1cc(C(C)N2C[C@H](C)N(c3cc(=O)n(C)c4ccc(C#N)nc34)C[C@H]2C)no1 (single isomer, unassigned) [Example 648]
28 | – | – | 14 | 2.2 | C[C@@H]1CN(c2c(C#N)c(=O)n(C)c3ccc(C#N)nc23)CCN1C(c1ccccc1)c1cc(F)cc(F)c1 (some centres unmarked) [Example 874]
29 | 0.009 | 0.044 | – | – | CCC(c1ccc(OC(F)(F)F)cc1)N1C[C@H](CC)N(c2cc(=O)n(C)c3ccc(C#N)nc23)C[C@H]1CC (single isomer, unassigned) [Example 1059]
30 | 0.15 | 0.03 | – | – | CC(c1cccc(OC(F)F)c1)N1C[C@H](C)N(c2cc(=O)n(C)c3ccc(C#N)nc23)C[C@H]1C (single isomer, unassigned) [Example 1271]
31 | 0.028 | 0.03 | – | – | CC[C@H]1CN(C(c2ccc(F)cc2)c2nc(C3CC3)cs2)[C@H](CC)CN1c1cc(=O)n(C)c2ccc(C#N)nc12 (some centres unmarked) [Example 1066]
32 | 3.4 | 4.9 | – | – | CC[C@@H]1CN(c2cc(=O)n(C)c3ccc(C#N)nc23)[C@@H](C)CN1C(C)c1ccc(F)cc1F (single isomer, unassigned) [Example 1088]
33 | 12 | 13 | – | – | CC(c1ccc(C(F)(F)F)cc1F)N1C[C@H](C)N(c2cc(=O)n(C)c3ccc(C#N)nc23)C[C@H]1C (single isomer, unassigned) [Example 412]
34 | – | – | 2.6 | 0.8 | C[C@@H]1CN(c2c(C#N)c(=O)n(C)c3ccc(C#N)nc23)CCN1C(c1ccc(Cl)cc1)c1ccc(F)cn1 (single isomer, unassigned) [Example 900]
35 | 1 | 37 | – | – | C[C@@H]1CN(c2cc(=O)n(C)c3ccc(C#N)nc23)[C@@H](C)CN1C(c1ccc(F)cc1)c1cn(C)cn1 (some centres unmarked) [Example 708]
36 | 110 | 11 | – | – | Cn1c(=O)cc(N2CCN(Cc3ccc(F)cc3Cl)C(COC(F)F)C2)c2nc(C#N)ccc21 (single isomer, unassigned) [Example 1184, 8-(4-(2-chloro-4-fluorobenzyl)-3-((difluoromethoxy)methyl)piperazin-1-yl)-5-methyl-6-oxo-5,6-dihydro-1,5-naphthyridine-2-carbonitrile]
37 | – | – | 4.8 | > 250 | CC(c1ccc(C(F)(F)F)cc1)N1C[C@H](C)N(c2c(C#N)c(=O)n(C)c3ccc(C#N)nc23)C[C@H]1C (some centres unmarked) [Example 788]
38 | 4.1 | 1.8 | – | – | Cc1nccc(C(c2ccc(F)cc2)N2CCN(c3c(C#N)c(=O)n(C)c4ccc(C#N)nc34)C[C@H]2C)n1 (stereo partly drawn) [Example 315, 8-((3R)-4-((4-fluorophenyl)(2-methylpyrimidin-4-yl)methyl)-3-methylpiperazin-1-yl)-5-methyl-6-oxo-5,6-dihydro-1,5-naphthyridine-2,7-dicarbonitrile]
39 | – | – | 18 | 14 | Cc1cc(C(c2ccc(F)cc2)N2C[C@H](C)N(c3c(C#N)c(=O)n(C)c4ccc(C#N)nc34)C[C@H]2C)no1 (single isomer, unassigned) [Example 865]
40 | – | – | 5.9 | 2.8 | Cc1ccc(C(c2ccc(F)cc2Cl)N2CCN(c3c(C#N)c(=O)n(C)c4ccc(C#N)nc34)C[C@H]2C)nc1 (some centres unmarked) [Example 938]
